Experimental data published in patent publication EP1061897B1, “GLYCYLGLYCINE OLEAMIDE IN DERMO-COSMETOLOGY” (Pierre Fabre Dermo-Cosmetique, priority 1998, dated 1999).
Residues, ends and D or L forms follow the SMILES beside them. *: point of attachment. Oleoyl = CCCCCCCC/C=C\CCCCCCCC(=O)*

What was measured:
[1] = system: collagène de type I; test: in vitro acellular glycation of type I collagen, thiobarbituric acid assay; type: biochemical; conditions: glucose 250 mM, 37°C, 8 days, figure 1
Procedure: L'activité inhibitrice de la glycylglycine est évaluée et comparée à celle de l'aminoguanidine en utilisant un modèle in vitro, acellulaire, de glycation du collagène de type I, selon le protocole suivant.
L'actif anti-glyquant est introduit dans une solution contenant du glucose 250 mM et du collagène de type I. L'aminoguanidine agit notamment en bloquant le groupement carbonyle du produit d'Amadori, stoppant ainsi la glycation à son stade précoce (M. Brownlee et coll., Science, 1986 (6), 232, 1629-1632).
Le mélange est incubé à 37°C pendant 8 jours puis le glucose non fixé est éliminé par dialyse. Après lyophilisation du collagène, on procède à un dosage à l'acide thiobarbiturique pour déterminer le taux de glycation.
Cette méthode permet le dosage de sucres liés aux cétoamines.
Le lyophilisat, après être pesé, est dissous dans l'acide oxalique 0,5 M. On laisse incuber à 120°C pendant 1 heure, puis à 40°C pendant 45 min après avoir ajouté de l'acide thiobarbiturique à 50 mM.
La densité optique du mélange, lue à 443 nm, est proportionnelle au taux de glycation exprimé en nmoles HMF formé par mg de lyophilisat.

[2] = system: élastase; test: in vitro acellular anti-elastase test, elastase diffusion in agarose gel containing orcein-stained insoluble elastin; type: biochemical; conditions: figure 2
From the text: La méthode utilisée est une technique in vitro acellulaire, basée sur la diffusion d'élastase dans un gel d'agarose contenant de l'élastine insoluble colorée par l'orcéïne et dispersée dans le gel avec ou sans principe actif. La lecture du diamètre de lyse permet de calculer le pourcentage d'inhibition de l'enzyme par le principe actif.

[3] = system: fibroblastes; test: Bell-type dermal equivalent, contraction kinetics of fibroblast-seeded collagen lattice; type: cell-based; conditions: followed over 7 days; 0,005 % oléamide de glycylglycine, 0,003 % acide oléique, 0,002 % gly-gly; figure 3
From the text: Pour objectiver cette activité, on utilise le modèle cellulaire de derme équivalent de type Bell. Il permet, grâce à une mise en culture de fibroblastes sur un support de collagène, de reproduire in vitro une structure tissulaire tridimensionnelle et de rendre compte des interactions fibroblaste-matrice, le fibroblaste étant impliqué dans le maintien de la structure dermique.
La capacité des fibroblastes, ensemencés dans un milieu défini avec ou sans actif, à organiser les fibres de collagène les unes par rapport aux autres et de les faire se rétracter, se concrétise par une diminution de surface de ce derme. Ce test traduit la capacité du fibroblaste à modeler, par ce biais, un véritable tissu. On suit donc la cinétique de contraction de ce derme sur 7 jours, cette cinétique étant liée au métabolisme de la cellule.
Les concentrations en actifs employées correspondent à des doses auxquelles ces actifs se sont avérés non cytotoxiques et non prolifératifs.

Row | Structure (SMILES) | activité anti-glyquante (taux de glycation, nmoles HMF/mg) ([1]; at 100 mM, compared with aminoguanidine) | activité anti-glyquante (taux de glycation, nmoles HMF/mg) ([1]; 1 mM, 10 mM and 100 mM) | activité anti-élastase (aire de lyse) [2] | cinétique de rétraction (pourcentage de rétraction) [3]
1 | NCC(=O)NCC(=O)O [glycylglycine] (H-Gly-Gly-OH) | activité équivalent à celle de l'aminoguanidine | avec un effet-dose | – | –
2 | CCCCCCCC/C=C\CCCCCCCC(=O)NCC(=O)NCC(=O)O [oléamide de glycylglycine] (Oleoyl-Gly-Gly-OH) | – | – | activité anti-élastase importante | plus efficace que l'acide oléique, l'association acide oléique/glycylglycine, la glycylglycine
